Laboratory results from PMC10800876, “Evaluation of proline-rich antimicrobial peptides as potential lead structures for novel antimycotics against Cryptococcus neoformans” (Frontiers in Microbiology, 2024).
≈ marks a conversion by molar mass, not a printed value. Read-outs that look alike come from different tables or passages of the source. Starred links: 1 amine or outer side, 2 acyl side, 3 side chain; linkers in the order of their positions; H or OH if unused. Non-standard residues stand in square brackets, D forms with d. Residues, ends and D or L forms follow the SMILES beside them. *: point of attachment. 5FAM = O=C1OC2(c3ccc(O)cc3Oc3cc(O)ccc32)c2ccc(C(=O)*)cc21; δOrn(α-TMG) = CN(C)C(=N[C@@H](CCCN[*:1])C(=O)[*:2])N(C)C; Orn = NCCC[C@H](N)C(=O)O

What was measured:
[1] = system: C. neoformans H99 (serotype A); details: for MIC (μmol/L) H99 24 h: H99 (serotype A, 24 h); for MIC (μmol/L) H99 48 h: H99 (serotype A, 48 h)
[2] = system: C. neoformans KN99α (serotype A, mating type MATα); details: for MIC (μmol/L) KN99α 48 h: KN99α (serotype A, mating type MATα, 48 h)
[3] = system: C. neoformans 1841 (serotype D); details: for MIC (μmol/L) 1841 24 h: 1841 (serotype D, 24 h, pH 7.5); for MIC (μmol/L) 1841 48 h: 1841 (serotype D, 48 h, pH 7.5); for activity of Cf-labeled peptide relative to the corresponding unlabeled peptide: C. neoformans 1841
[4] = KN99α (serotype A, mating type MATα, 24 h)

Compound	MIC (μmol/L) H99 24 h [1] [µmol/L]	MIC (μmol/L) H99 48 h [1] [µmol/L]	MIC (μmol/L) KN99α 24 h [2, 4] [µmol/L]	MIC (μmol/L) KN99α 48 h [2] [µmol/L]	MIC (μmol/L) 1841 24 h [3] [µmol/L]	MIC (μmol/L) 1841 48 h [3] [µmol/L]	MIC (mg/L) KN99α 24 h [2, 4] [mg/L]	MIC (mg/L) 24 h, Cf-labeled peptides ([3]; 1841 (serotype D, 24 h)) [mg/L]	MIC (after 48 h) ([3]; 1841 (serotype D, 48 h)) [µM]	MIC (mg/L) 48 h, Cf-labeled peptides ([3]; 1841 (serotype D, 48 h)) [mg/L]	MIC (mg/L) 24 h, Cf-labeled peptides ([3]; C. neoformans 1841, read after 24 h, mean of three replicates (n = 3)) [mg/L]	MIC (mg/L) 48 h, Cf-labeled peptides ([3]; C. neoformans 1841, read after 48 h, mean of three replicates (n = 3)) [mg/L]	activity of Cf-labeled peptide relative to the corresponding unlabeled peptide [3]
CC[C@H](C)[C@H](NC(=O)[C@H](CCCNC(=N)N)NC(=O)[C@H](CC(C)C)NC(=O)[C@@H]1CCCN1C(=O)CN)C(=O)N[C@@H](Cc1ccc(O)cc1)C(=O)N[C@H](C(=O)N1CCC[C@H]1C(=O)N[C@@H](Cc1c[nH]cn1)C(=O)N1CCC[C@H]1C(=O)N1CCC[C@H]1C(=O)N1CCC[C@H]1C(=O)N[C@@H](CCCNC(=N)N)C(=O)N1CCC[C@H]1C(=O)N[C@@H](CC(N)=O)C(=O)N[C@@H](CCC(N)=O)C(=O)N[C@@H](CC(N)=O)C(=O)N[C@@H](CCCNC(=N)N)C(=O)O)C(C)C [Apidaecin 1b scr] (H-GPLRIYVPHPPPRPNQNR-OH)	> 61	> 61	> 61	> 61	> 61	> 61							
CC[C@H](C)[C@H](NC(=O)CNC(=O)[C@H](CCC(=O)O)NC(=O)[C@H](CCCCN)NC(=O)[C@H](CC(C)C)NC(=O)[C@H](CCCCN)NC(=O)[C@H](CCCCN)NC(=O)[C@@H](NC(=O)CNC(=O)[C@H](CCC(N)=O)NC(=O)[C@H](CCCCN)NC(=O)[C@@H](NC(=O)[C@H](CCCCN)NC(=O)[C@H](CC(N)=O)NC(=O)[C@H](Cc1ccccc1)NC(=O)[C@H](Cc1ccccc1)NC(=O)[C@H](CCC(N)=O)NC(=O)[C@H](CCCCN)NC(=O)[C@H](CC(C)C)NC(=O)[C@@H](NC(=O)[C@@H]1CCCN1C(=O)[C@H](CCC(N)=O)NC(=O)[C@@H]1CCCN1C(=O)[C@H](CCC(=O)O)NC(=O)[C@@H](N)CCC(N)=O)C(C)C)[C@@H](C)CC)[C@@H](C)CC)C(=O)N[C@@H](CCCCN)C(=O)N[C@@H](CCC(=O)O)C(=O)NCC(=O)NCC(=O)N[C@@H](CCCCN)C(=O)N[C@@H](CCCNC(=N)N)C(=O)N[C@@H](CC(C)C)C(=O)N[C@@H](CC(C)C)C(=O)NCC(=O)O [CRAMP rev] (H-QEPQPVLKQFFNKIKQGIKKLKEGIKEGGKRLLG-OH)	1.0 (≈ 3.88 µg/mL)	2.1 (≈ 8.15 µg/mL)	1.0 to 2.1	2.1 (≈ 8.15 µg/mL)	1.0 (≈ 3.88 µg/mL)	2.1 (≈ 8.15 µg/mL)	4 to 8						
CC[C@H](C)[C@H](NC(=O)[C@H](CCCNC(=O)c1ccc2c(c1)C(=O)OC21c2ccc(O)cc2Oc2cc(O)ccc21)N=C(N(C)C)N(C)C)C(=O)N[C@@H](CCCN)C(=O)N[C@H](C(=O)N[C@@H](CCCN)C(=O)N[C@@H](CCCNC(=N)N)C(=O)N1CCC[C@H]1C(=O)N[C@H](C(=O)N[C@@H](Cc1ccc(O)cc1)C(=O)N[C@@H](CCCN)C(=O)N1CCC[C@H]1C(=O)N[C@@H](CCCNC(=N)N)C(=O)N1CCC[C@H]1C(=O)N[C@@H](CCCNC(=N)N)C(=O)N1CCC[C@H]1C(=O)N1CCC[C@H]1C(=O)N[C@@H](Cc1c[nH]cn1)C(=O)N1CCC[C@H]1C(=O)N[C@@H](CCCNC(=N)N)C(=O)N[C@@H](CC(C)C)C(=O)O)C(C)C)[C@@H](C)CC [Cf-Api795] (5FAM-[δOrn(α-TMG)]I[Orn]I[Orn]RPVY[Orn]PRPRPPHPRL-OH)									3.2 (≈ 9.21 µg/mL)		4 (≈ 1.39 µM)	4 (≈ 1.39 µM)	slightly more active

The next lines start with results.

MIC (μmol/L) H99 24 h [1] [µmol/L]	MIC (μmol/L) H99 48 h [1] [µmol/L]	MIC (μmol/L) KN99α 24 h [2, 4] [µmol/L]	MIC (μmol/L) KN99α 48 h [2] [µmol/L]	MIC (μmol/L) 1841 24 h [3] [µmol/L]	MIC (μmol/L) 1841 48 h [3] [µmol/L]	MIC (mg/L) KN99α 24 h [2, 4] [mg/L]	MIC (mg/L) 24 h, Cf-labeled peptides ([3]; 1841 (serotype D, 24 h)) [mg/L]	MIC (after 48 h) ([3]; 1841 (serotype D, 48 h)) [µM]	MIC (mg/L) 48 h, Cf-labeled peptides ([3]; 1841 (serotype D, 48 h)) [mg/L]	MIC (mg/L) 24 h, Cf-labeled peptides ([3]; C. neoformans 1841, read after 24 h, mean of three replicates (n = 3)) [mg/L]	MIC (mg/L) 48 h, Cf-labeled peptides ([3]; C. neoformans 1841, read after 48 h, mean of three replicates (n = 3)) [mg/L]	Compound	activity of Cf-labeled peptide relative to the corresponding unlabeled peptide [3]
							32 (≈ 12.1 µM)	7.0 (≈ 18.5 µg/mL)	32 to 64			CC[C@H](C)[C@H](NC(=O)[C@H](Cc1ccc(O)cc1)NC(=O)[C@@H](NC(=O)[C@@H]1CCCN1C(=O)[C@H](CCCNC(=N)N)NC(=O)[C@H](CC(N)=O)NC(=O)[C@H](CC(N)=O)NC(=O)[C@H](CCCNC(=O)c1ccc2c(c1)C(=O)OC21c2ccc(O)cc2Oc2cc(O)ccc21)N=C(N(C)C)N(C)C)C(C)C)C(=O)N1CCC[C@H]1C(=O)N[C@@H](CCCNC(=N)N)C(=O)N1CCC[C@H]1C(=O)N[C@@H](CCCNC(=N)N)C(=O)N1CCC[C@H]1C(=O)N1CCC[C@H]1C(=O)N[C@@H](Cc1c[nH]cn1)C(=O)N1CCC[C@H]1C(=O)N[C@@H](CCCNC(=N)N)C(=O)N[C@@H](CC(C)C)C(N)=O [Cf-Api88] (5FAM-[δOrn(α-TMG)]NNRPVYIPRPRPPHPRL-NH2)	slightly less active
							> 64	28 (≈ 74.2 µg/mL)	> 64			CC[C@H](C)[C@H](NC(=O)[C@H](Cc1ccc(O)cc1)NC(=O)[C@@H](NC(=O)[C@@H]1CCCN1C(=O)[C@H](CCCNC(=N)N)NC(=O)[C@H](CC(N)=O)NC(=O)[C@H](CC(N)=O)NC(=O)[C@H](CCCNC(=O)c1ccc2c(c1)C(=O)OC21c2ccc(O)cc2Oc2cc(O)ccc21)N=C(N(C)C)N(C)C)C(C)C)C(=O)N1CCC[C@H]1C(=O)N[C@@H](CCCNC(=N)N)C(=O)N1CCC[C@H]1C(=O)N[C@@H](CCCNC(=N)N)C(=O)N1CCC[C@H]1C(=O)N1CCC[C@H]1C(=O)N[C@@H](Cc1c[nH]cn1)C(=O)N1CCC[C@H]1C(=O)N[C@@H](CCCNC(=N)N)C(=O)N[C@@H](CC(C)C)C(=O)O [Cf-Api137] (5FAM-[δOrn(α-TMG)]NNRPVYIPRPRPPHPRL-OH)	slightly less active
